In patent US9469650B2, “Melampomagnolide B derivatives” (BOARD OF TRUSTEES OF THE UNIVERSITY OF ARKANSAS, priority 2013, dated 2016):
Where two headings read alike, the source gives them in different places.

What was measured:
[1] = test system: MDA-MB-231/ATCC; assay: panel of 60 human tumor cell lines, growth inhibition (Breast Cancer); conditions: MDA-MB-231/ATCC
[2] = test system: SN12C; assay: panel of 60 human tumor cell lines, growth inhibition (Renal Cancer)
[3] = test system: HT29; assay: panel of 60 human tumor cell lines, growth inhibition (Colon Cancer); conditions: HT29
[4] = test system: KM12; assay: as above; conditions: KM12
[5] = test system: SF-539; assay: panel of 60 human tumor cell lines, growth inhibition (CNS Cancer); conditions: SF-539
[6] = test system: HOP-92; assay: panel of 60 human tumor cell lines, growth inhibition (Non-Small Cell Lung Cancer); conditions: HOP-92
[7] = test system: COLO 205; assay: panel of 60 human tumor cell lines, growth inhibition (Colon Cancer); conditions: COLO 205
[8] = test system: NCI-H522; assay: panel of 60 human tumor cell lines, growth inhibition (Non-Small Cell Lung Cancer); conditions: NCI-H522
[9] = test system: ACHN; assay: panel of 60 human tumor cell lines, growth inhibition (Renal Cancer)
[10] = test system: NCI-H226; assay: panel of 60 human tumor cell lines, growth inhibition (Non-Small Cell Lung Cancer); conditions: NCI-H226
[11] = test system: MDA-MB-435; assay: panel of 60 human tumor cell lines, growth inhibition (Melanoma); conditions: MDA-MB-435
[12] = test system: NCI-H23; assay: panel of 60 human tumor cell lines, growth inhibition (Non-Small Cell Lung Cancer)
[13] = test system: HL-60(TB)
[14] = test system: NCI-H460; assay: panel of 60 human tumor cell lines, growth inhibition (Non-Small Cell Lung Cancer); conditions: NCI-H460
[15] = test system: HCT-15; assay: panel of 60 human tumor cell lines, growth inhibition (Colon Cancer); conditions: HCT-15
[16] = test system: CCRF-CEM; assay: panel of 60 human tumor cell lines, growth inhibition (Leukemia)
[17] = test system: M14; assay: panel of 60 human tumor cell lines, growth inhibition (Melanoma); conditions: M14
[18] = test system: PC-3; assay: panel of 60 human tumor cell lines, growth inhibition (Prostate Cancer); conditions: PC-3

## C=C1C(=O)O[C@H]2[C@H]1CC/C(COC(=O)NC)=C\CC[C@@]1(C)O[C@@H]21 [JVM 2-57]
[1]; Log10 Concentration −4.0
  Percent Growth: −77%
[1]; Log10 Concentration −5.0
  Percent Growth: 31%
[1]; Log10 Concentration −6.0
  Percent Growth: 86%
[1]; Log10 Concentration −7.0
  Percent Growth: 89%
[1]; Log10 Concentration −8.0
  Percent Growth: 106%
[1]; NCI five dose
  GI50: 4.48 µM
  TGI: 1.93E−5
[2]; Log10 Concentration −4.0
  Percent Growth: −59%
[2]; Log10 Concentration −5.0
  Percent Growth: 28%
[2]; Log10 Concentration −6.0
  Percent Growth: 93%
[2]; Log10 Concentration −7.0
  Percent Growth: 97%
[2]; Log10 Concentration −8.0
  Percent Growth: 96%
[2]; NCI five dose
  GI50: 4.57 µM
  TGI: 2.09E−5
[3]; Log10 Concentration −4.0
  Percent Growth: −73%
[3]; Log10 Concentration −5.0
  Percent Growth: 21%
[3]; Log10 Concentration −6.0
  Percent Growth: 104%
[3]; Log10 Concentration −7.0
  Percent Growth: 96%
[3]; Log10 Concentration −8.0
  Percent Growth: 101%
[3]; NCI five dose
  GI50: 4.5 µM
  TGI: 1.68E−5
[4]; Log10 Concentration −4.0
  Percent Growth: −92%
[4]; Log10 Concentration −5.0
  Percent Growth: 73%
[4]; Log10 Concentration −6.0
  Percent Growth: 99%
[4]; Log10 Concentration −7.0
  Percent Growth: 97%
[4]; Log10 Concentration −8.0
  Percent Growth: 98%
[4]; NCI five dose
  GI50: 13.8 µM
  TGI: 2.78E−5
[5]; Log10 Concentration −4.0
  Percent Growth: −92%
[5]; Log10 Concentration −5.0
  Percent Growth: 22%
[5]; Log10 Concentration −6.0
  Percent Growth: 88%
[5]; Log10 Concentration −7.0
  Percent Growth: 91%
[5]; Log10 Concentration −8.0
  Percent Growth: 97%
[5]; NCI five dose
  GI50: 3.8 µM
  TGI: 1.57E−5
[6]; Log10 Concentration −4.0
  Percent Growth: −95%
[6]; Log10 Concentration −5.0
  Percent Growth: −9%
[6]; Log10 Concentration −6.0
  Percent Growth: 83%
[6]; Log10 Concentration −7.0
  Percent Growth: 91%
[6]; Log10 Concentration −8.0
  Percent Growth: 92%
[6]; NCI five dose
  GI50: 2.26 µM
  TGI: 7.90E−6
[7]; Log10 Concentration −4.0
  Percent Growth: −94%
[7]; Log10 Concentration −5.0
  Percent Growth: −8%
[7]; Log10 Concentration −6.0
  Percent Growth: 95%
[7]; Log10 Concentration −7.0
  Percent Growth: 97%
[7]; Log10 Concentration −8.0
  Percent Growth: 103%
[7]; NCI five dose
  GI50: 2.73 µM
  TGI: 8.33E−6
[7]; read-out: LC50, NCI five dose
  CC50: 30.8 µM
[8]; Log10 Concentration −4.0
  Percent Growth: −74%
[8]; Log10 Concentration −5.0
  Percent Growth: −73%
[8]; Log10 Concentration −6.0
  Percent Growth: 68%
[8]; Log10 Concentration −7.0
  Percent Growth: 87%
[8]; Log10 Concentration −8.0
  Percent Growth: 89%
[8]; NCI five dose
  GI50: 1.33 µM
  TGI: 3.02E−6
[9]; Log10 Concentration −4.0
  Percent Growth: −83%
[9]; Log10 Concentration −5.0
  Percent Growth: 7%
[9]; Log10 Concentration −6.0
  Percent Growth: 84%
[9]; Log10 Concentration −7.0
  Percent Growth: 93%
[9]; Log10 Concentration −8.0
  Percent Growth: 98%
[9]; NCI five dose
  GI50: 2.78 µM
  TGI: 1.19E−5
[10]; Log10 Concentration −4.0
  Percent Growth: −52%
[10]; Log10 Concentration −5.0
  Percent Growth: 49%
[10]; Log10 Concentration −6.0
  Percent Growth: 86%
[10]; Log10 Concentration −7.0
  Percent Growth: 101%
[10]; Log10 Concentration −8.0
  Percent Growth: 92%
[10]; NCI five dose
  GI50: 9.29 µM
  TGI: 3.06E−5
[11]; Log10 Concentration −4.0
  Percent Growth: −81%
[11]; Log10 Concentration −5.0
  Percent Growth: 32%
[11]; Log10 Concentration −6.0
  Percent Growth: 91%
[11]; Log10 Concentration −7.0
  Percent Growth: 93%
[11]; Log10 Concentration −8.0
  Percent Growth: 99%
[11]; NCI five dose
  GI50: 5.01 µM
  TGI: 1.92E−5
[12]; NCI five dose
  TGI: 2.04E−5
[12]; NCI-H 3, Log10 Concentration −4.0
  Percent Growth: −68%
[12]; NCI-H 3, Log10 Concentration −5.0
  Percent Growth: 30%
[12]; NCI-H 3, Log10 Concentration −6.0
  Percent Growth: 92%
[12]; NCI-H 3, Log10 Concentration −7.0
  Percent Growth: 95%
[12]; NCI-H 3, Log10 Concentration −8.0
  Percent Growth: 94%
[12]; NCI-H 3, NCI five dose
  GI50: 4.79 µM
[13]; Log10 Concentration −4.0
  Percent Growth: −55%
[13]; Log10 Concentration −5.0
  Percent Growth: −11%
[13]; Log10 Concentration −6.0
  Percent Growth: 84%
[13]; Log10 Concentration −7.0
  Percent Growth: 91%
[13]; Log10 Concentration −8.0
  Percent Growth: 96%
[13]; NCI five dose
  GI50: 2.28 µM
  TGI: 7.73E−6
[13]; read-out: LC50, NCI five dose
  CC50: 77.2 µM
[14]; Log10 Concentration −4.0
  Percent Growth: −65%
[14]; Log10 Concentration −5.0
  Percent Growth: 78%
[14]; Log10 Concentration −6.0
  Percent Growth: 101%
[14]; Log10 Concentration −7.0
  Percent Growth: 103%
[14]; Log10 Concentration −8.0
  Percent Growth: 103%
[14]; NCI five dose
  GI50: 15.6 µM
  TGI: 3.49E−5
[15]; Log10 Concentration −4.0
  Percent Growth: −83%
[15]; Log10 Concentration −5.0
  Percent Growth: 4%
[15]; Log10 Concentration −6.0
  Percent Growth: 82%
[15]; Log10 Concentration −7.0
  Percent Growth: 97%
[15]; Log10 Concentration −8.0
  Percent Growth: 98%
[15]; NCI five dose
  GI50: 2.58 µM
  TGI: 1.12E−5
[16]; Log10 Concentration −4.0
  Percent Growth: −53%
[16]; Log10 Concentration −5.0
  Percent Growth: −29%
[16]; Log10 Concentration −6.0
  Percent Growth: 59%
[16]; Log10 Concentration −7.0
  Percent Growth: 93%
[16]; Log10 Concentration −8.0
  Percent Growth: 97%
[16]; NCI five dose
  GI50: 1.25 µM
  TGI: 4.69E−6
[17]; Log10 Concentration −4.0
  Percent Growth: −66%
[17]; Log10 Concentration −5.0
  Percent Growth: 27%
[17]; Log10 Concentration −6.0
  Percent Growth: 87%
[17]; Log10 Concentration −7.0
  Percent Growth: 89%
[17]; Log10 Concentration −8.0
  Percent Growth: 99%
[17]; NCI five dose
  GI50: 4.1 µM
  TGI: 1.93E−5
[18]; Log10 Concentration −4.0
  Percent Growth: −70%
[18]; Log10 Concentration −5.0
  Percent Growth: 67%
[18]; Log10 Concentration −6.0
  Percent Growth: 96%
[18]; Log10 Concentration −7.0
  Percent Growth: 97%
[18]; Log10 Concentration −8.0
  Percent Growth: 98%
[18]; NCI five dose
  GI50: 13.3 µM
  TGI: 3.08E−5
